Laboratory results: ChEMBL document CHEMBL1135903 (J Med Chem, 2002)

Key:
Carbonic anhydrase 4 = molecular target: T1, Carbonic anhydrase 4 (Bos taurus, UniProt Q95323)
T1 sequence (Q95323 whole entry): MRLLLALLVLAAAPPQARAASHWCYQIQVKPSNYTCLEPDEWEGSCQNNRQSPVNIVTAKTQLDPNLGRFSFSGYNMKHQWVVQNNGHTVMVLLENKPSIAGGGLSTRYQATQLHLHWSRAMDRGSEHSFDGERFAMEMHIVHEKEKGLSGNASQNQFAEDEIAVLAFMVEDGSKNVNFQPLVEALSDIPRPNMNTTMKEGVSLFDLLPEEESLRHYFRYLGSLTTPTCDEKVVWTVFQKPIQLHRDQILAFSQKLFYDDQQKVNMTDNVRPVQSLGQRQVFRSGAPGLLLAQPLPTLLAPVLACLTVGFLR
Description: Inhibitory activity against bovine carbonic anhydrase IV

Carbonic anhydrase 1 = Carbonic anhydrase 1 (Homo sapiens, UniProt P00915)
Sequence of Carbonic anhydrase 1 (P00915 whole entry): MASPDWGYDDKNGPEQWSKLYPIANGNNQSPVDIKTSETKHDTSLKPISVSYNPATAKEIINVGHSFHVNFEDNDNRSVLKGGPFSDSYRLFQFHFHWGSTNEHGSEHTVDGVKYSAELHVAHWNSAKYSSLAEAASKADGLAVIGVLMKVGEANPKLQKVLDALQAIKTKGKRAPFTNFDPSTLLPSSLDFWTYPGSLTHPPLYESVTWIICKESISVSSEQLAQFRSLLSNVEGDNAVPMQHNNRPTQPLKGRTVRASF
Description: Inhibitory activity against Human carbonic anhydrase I

| Ki (Carbonic anhydrase 4) [nM] | Ki (Carbonic anhydrase 1) [nM] | Compound |
| --- | --- | --- |
| 6 | 76 | NS(=O)(=O)c1nnc(NC(=O)CCNC(=O)CN(CCOCCOCCN(CC(=O)O)CC(=O)NCCC(=O)Nc2nnc(S(N)(=O)=O)s2)CC(=O)O)s1 |
| 257 | 3450 | NS(=O)(=O)c1ccc(CCNC(=O)CNCC(=O)O)cc1 |
| 620 | – | NS(=O)(=O)c1cccc(NC(=O)CN(CCN(CC(=O)O)CC(=O)Nc2cccc(S(N)(=O)=O)c2)CC(=O)O)c1 |
| 13 | – | NS(=O)(=O)c1ccc(CCNC(=O)CN(CCN(CC(=O)O)CC(=O)NCCc2ccc(S(N)(=O)=O)cc2)CC(=O)O)cc1 [listing 1 of 2 here] |
| 500 | – | NS(=O)(=O)c1cccc(NC(=O)CN(CCN(CCN(CC(=O)O)CC(=O)O)CC(=O)O)CC(=O)O)c1 |
| 29 | – | NS(=O)(=O)c1ccc(NC(=O)CN(CCN(CCN(CC(=O)O)CC(=O)O)CC(=O)O)CC(=O)O)c(F)c1 |
| 265 | – | NS(=O)(=O)c1ccc(COC(=O)CN(CCN(CCN(CC(=O)O)CC(=O)O)CC(=O)O)CC(=O)O)cc1 |
| 430 | – | NS(=O)(=O)c1ccc(NNC(=O)CN(CCN(CCN(CC(=O)O)CC(=O)NNc2ccc(S(N)(=O)=O)cc2)CC(=O)O)CC(=O)O)cc1 |
| 37 | – | NS(=O)(=O)c1ccc(CNC(=O)CN(CCN(CCN(CC(=O)O)CC(=O)NCc2ccc(S(N)(=O)=O)cc2)CC(=O)O)CC(=O)O)cc1 [listing 1 of 2 here] |
| 8 | – | NS(=O)(=O)c1nnc(NC(=O)CCNC(=O)CN(CCN(CCN(CC(=O)O)CC(=O)NCCC(=O)Nc2nnc(S(N)(=O)=O)s2)CC(=O)O)CC(=O)O)s1 |
| 54 | – | NS(=O)(=O)c1ccc(CCNC(=O)CN(CCN(CC(=O)O)CC(=O)NCCc2ccc(S(N)(=O)=O)cc2)CC(=O)O)cc1 [listing 2 of 2 here] |
| 21 | – | NS(=O)(=O)c1ccc(CNC(=O)CN(CCN(CCN(CC(=O)O)CC(=O)NCc2ccc(S(N)(=O)=O)cc2)CC(=O)O)CC(=O)O)cc1 [listing 2 of 2 here] |
| 6 | – | NS(=O)(=O)c1nc2ccc(NC(=O)CN(CCN(CCN(CC(=O)O)CC(=O)Nc3ccc4nc(S(N)(=O)=O)sc4c3)CC(=O)O)CC(=O)O)cc2s1 |
| 4 | – | NS(=O)(=O)c1nnc(NC(=O)CN(CCN(CCN(CC(=O)O)CC(=O)Nc2nnc(S(N)(=O)=O)s2)CC(=O)O)CC(=O)O)s1 |
| 210 | – | NS(=O)(=O)c1ccc(NC(=O)CN(CCN(CC(=O)O)CC(=O)Nc2ccc(S(N)(=O)=O)cc2)CC(=O)O)cc1 [listing 1 of 2 here] |
| 5 | – | NS(=O)(=O)c1nc2ccc(OCCOC(=O)CN(CCN(CCN(CC(=O)O)CC(=O)O)CC(=O)O)CC(=O)O)cc2s1 |
| 115 | – | NS(=O)(=O)c1ccc(CCOC(=O)CN(CCN(CCN(CC(=O)O)CC(=O)OCCc2ccc(S(N)(=O)=O)cc2)CC(=O)O)CC(=O)O)cc1 |
| 8 | – | Cn1nc(S(N)(=O)=O)s/c1=N/C(=O)CN(CCN(CC(=O)O)CC(=O)/N=c1/sc(S(N)(=O)=O)nn1C)CC(=O)O |
| 36 | – | NS(=O)(=O)c1cc(S(N)(=O)=O)c(NC(=O)CN(CCN(CCN(CC(=O)O)CC(=O)O)CC(=O)O)CC(=O)O)c(Cl)c1Cl |
| 100 | – | NS(=O)(=O)c1ccc(NC(=O)CN(CCN(CCN(CC(=O)O)CC(=O)Nc2ccc(S(N)(=O)=O)cc2)CC(=O)O)CC(=O)O)cc1 |
| 330 | – | NS(=O)(=O)c1ccccc1NC(=O)CN(CCN(CCN(CC(=O)O)CC(=O)Nc1ccccc1S(N)(=O)=O)CC(=O)O)CC(=O)O |
| 16 | – | NS(=O)(=O)c1nnc(NC(=O)CCNC(=O)CN(CCN(CCN(CC(=O)O)CC(=O)O)CC(=O)O)CC(=O)O)s1 |
| 10 | – | NS(=O)(=O)c1ccc(CNC(=O)CN(CCN(CC(=O)O)CC(=O)NCc2ccc(S(N)(=O)=O)cc2)CC(=O)O)cc1 [listing 1 of 2 here] |
| 425 | – | NS(=O)(=O)c1cccc(NC(=O)CN(CCN(CCN(CC(=O)O)CC(=O)Nc2cccc(S(N)(=O)=O)c2)CC(=O)O)CC(=O)O)c1 |
| 32 | – | NS(=O)(=O)c1ccc(NC(=O)CN(CCN(CCN(CC(=O)O)CC(=O)O)CC(=O)O)CC(=O)O)c(Cl)c1 |

| Ki (Carbonic anhydrase 4) [nM] | Ki (Carbonic anhydrase 1) [nM] | Compound |
| --- | --- | --- |
| 40 | – | NS(=O)(=O)c1ccc(CNC(=O)CN(CCN(CCN(CC(=O)O)CC(=O)O)CC(=O)O)CC(=O)O)cc1 |
| 36 | – | NS(=O)(=O)c1ccc(CCNC(=O)CN(CCN(CCN(CC(=O)O)CC(=O)O)CC(=O)O)CC(=O)O)cc1 |
| 18 | – | NS(=O)(=O)c1ccc(NC(=O)CN(CCN(CCN(CC(=O)O)CC(=O)Nc2ccc(S(N)(=O)=O)cc2F)CC(=O)O)CC(=O)O)c(F)c1 |
| 6 | – | NS(=O)(=O)c1nc2ccc(OC(=O)CN(CCN(CCN(CC(=O)O)CC(=O)O)CC(=O)O)CC(=O)O)cc2s1 |
| 19 | – | Cn1nc(S(N)(=O)=O)s/c1=N/C(=O)CN(CCN(CCN(CC(=O)O)CC(=O)O)CC(=O)O)CC(=O)O |
| 230 | – | NS(=O)(=O)c1ccc(NC(=O)CN(CCN(CC(=O)O)CC(=O)Nc2ccc(S(N)(=O)=O)cc2)CC(=O)O)cc1 [listing 2 of 2 here] |
| 52 | – | NS(=O)(=O)c1cc(S(N)(=O)=O)c(NC(=O)CN(CCN(CCN(CC(=O)O)CC(=O)O)CC(=O)O)CC(=O)O)cc1Cl |
| 630 | – | NS(=O)(=O)c1ccc(NNC(=O)CN(CCN(CCN(CC(=O)O)CC(=O)O)CC(=O)O)CC(=O)O)cc1 |
| 62 | – | NS(=O)(=O)c1ccc(CNC(=O)CN(CCN(CC(=O)O)CC(=O)NCc2ccc(S(N)(=O)=O)cc2)CC(=O)O)cc1 [listing 2 of 2 here] |
| 29 | – | NS(=O)(=O)c1ccc(NC(=O)CN(CCN(CCN(CC(=O)O)CC(=O)O)CC(=O)O)CC(=O)O)c(I)c1 |
| 5 | – | NS(=O)(=O)c1nnc(NC(=O)CN(CCN(CC(=O)O)CC(=O)Nc2nnc(S(N)(=O)=O)s2)CC(=O)O)s1 [listing 1 of 2 here] |
| 170 | – | NS(=O)(=O)c1ccc(COC(=O)CN(CCN(CCN(CC(=O)O)CC(=O)OCc2ccc(S(N)(=O)=O)cc2)CC(=O)O)CC(=O)O)cc1 |
| 25 | – | NS(=O)(=O)c1cc(S(N)(=O)=O)c(NC(=O)CN(CCN(CCN(CC(=O)O)CC(=O)Nc2c(S(N)(=O)=O)cc(S(N)(=O)=O)c(Cl)c2Cl)CC(=O)O)CC(=O)O)c(Cl)c1Cl |
| 9 | – | NS(=O)(=O)c1nc2ccc(NC(=O)CN(CCN(CCN(CC(=O)O)CC(=O)O)CC(=O)O)CC(=O)O)cc2s1 |
| 27 | – | NS(=O)(=O)c1ccc(NC(=O)CN(CCN(CCN(CC(=O)O)CC(=O)Nc2ccc(S(N)(=O)=O)cc2Cl)CC(=O)O)CC(=O)O)c(Cl)c1 |
| 21 | – | NS(=O)(=O)c1ccc(NC(=O)CN(CCN(CCN(CC(=O)O)CC(=O)Nc2ccc(S(N)(=O)=O)cc2Br)CC(=O)O)CC(=O)O)c(Br)c1 |
| 16 | – | NS(=O)(=O)c1ccc(CCNC(=O)CN(CCN(CCN(CC(=O)O)CC(=O)NCCc2ccc(S(N)(=O)=O)cc2)CC(=O)O)CC(=O)O)cc1 [listing 1 of 2 here] |
| 190 | – | NS(=O)(=O)c1ccc(CCOC(=O)CN(CCN(CCN(CC(=O)O)CC(=O)O)CC(=O)O)CC(=O)O)cc1 |
| 12 | – | NS(=O)(=O)c1nnc(NC(=O)CN(CCN(CC(=O)O)CC(=O)Nc2nnc(S(N)(=O)=O)s2)CC(=O)O)s1 [listing 2 of 2 here] |
| 550 | – | NS(=O)(=O)c1ccccc1NC(=O)CN(CCN(CCN(CC(=O)O)CC(=O)O)CC(=O)O)CC(=O)O |
| 24 | – | NS(=O)(=O)c1ccc(NC(=O)CN(CCN(CCN(CC(=O)O)CC(=O)Nc2ccc(S(N)(=O)=O)cc2I)CC(=O)O)CC(=O)O)c(I)c1 |
| 41 | – | NS(=O)(=O)c1cc(S(N)(=O)=O)c(NC(=O)CN(CCN(CCN(CC(=O)O)CC(=O)Nc2cc(Cl)c(S(N)(=O)=O)cc2S(N)(=O)=O)CC(=O)O)CC(=O)O)cc1Cl |
| 25 | – | NS(=O)(=O)c1ccc(CCNC(=O)CN(CCN(CCN(CC(=O)O)CC(=O)NCCc2ccc(S(N)(=O)=O)cc2)CC(=O)O)CC(=O)O)cc1 [listing 2 of 2 here] |
| 27 | – | NS(=O)(=O)c1ccc(NC(=O)CN(CCN(CCN(CC(=O)O)CC(=O)O)CC(=O)O)CC(=O)O)c(Br)c1 |
